According to US20120208809A1, “9H-PYRROLO[2,3-B: 5,4-C'] DIPYRIDINE AZACARBOLINE DERIVATIVES, PREPARATION THEREOF, AND THERAPEUTIC USE THEREOF” (SANOFI, priority 2009, published 2012):

Assays:
Pim-1 = target: T1, Pim-1 (Homo sapiens, UniProt P11309); experiment: TR-FRET assay of Pim kinase activity (phosphorylation of Bad Ser112), Pim-1; assay type: biochemical; details: ATP 40 μM, read-out: IC50 Pim1
T1 construct: full-length human recombinant His6-labelled Pim-1, Pim-2 or Pim-3 protein; His6; made in house
T1 sequence (P11309 whole entry): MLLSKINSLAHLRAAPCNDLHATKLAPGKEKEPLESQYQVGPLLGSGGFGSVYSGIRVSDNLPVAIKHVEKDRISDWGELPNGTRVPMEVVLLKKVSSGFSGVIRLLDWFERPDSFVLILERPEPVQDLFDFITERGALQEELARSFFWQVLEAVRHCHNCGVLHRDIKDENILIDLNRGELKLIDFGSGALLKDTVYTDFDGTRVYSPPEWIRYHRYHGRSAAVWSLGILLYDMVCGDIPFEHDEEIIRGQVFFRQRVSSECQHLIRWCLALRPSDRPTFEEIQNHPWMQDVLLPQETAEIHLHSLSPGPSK
In short: (§1)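 Full-length His6-tagged human Pim-1, -2 or -3 phosphorylate full-length His6-Bad at 40 μM ATP; phospho-Ser112 detected by TR-FRET (Eu anti-phosphoBad, APC anti-His6), 665/615 nm ratio. Compounds run at 10 concentrations in duplicate, typically top 30 μM; IC50 from 4-parameter logistic fit.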

MV4-11 = experiment: Cell viability assay (CellTiter-Blue), MV4-11; assay type: cell-based; details: Homo sapiens, read-out: EC50 MV4-11 μM (acute myeloid leukemia), MV4-11 cells, read-out: EC50 MV4-11 μM (myeloma)
In short: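 MOLM-13 or MV4-11 cells incubated 48, 72 or 96 h (preferably 72 h) with nine 3-fold compound dilutions, top dose 10 μM or 30 μM. Viability read by CellTiter-Blue resazurin reduction over 4 h (fluorescence). EC50 is the concentration giving 50% reduction of viability/proliferative expansion.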

Pim-2 = target: T2, Pim-2 (Homo sapiens, UniProt Q9P1W9); experiment: TR-FRET assay of Pim kinase activity (phosphorylation of Bad Ser112), Pim-2; assay type: biochemical; details: ATP 40 μM, read-out: IC50 Pim2
T2 construct: full-length human recombinant His6-labelled Pim-1, Pim-2 or Pim-3 protein; His6; made in house
T2 sequence (Q9P1W9 whole entry): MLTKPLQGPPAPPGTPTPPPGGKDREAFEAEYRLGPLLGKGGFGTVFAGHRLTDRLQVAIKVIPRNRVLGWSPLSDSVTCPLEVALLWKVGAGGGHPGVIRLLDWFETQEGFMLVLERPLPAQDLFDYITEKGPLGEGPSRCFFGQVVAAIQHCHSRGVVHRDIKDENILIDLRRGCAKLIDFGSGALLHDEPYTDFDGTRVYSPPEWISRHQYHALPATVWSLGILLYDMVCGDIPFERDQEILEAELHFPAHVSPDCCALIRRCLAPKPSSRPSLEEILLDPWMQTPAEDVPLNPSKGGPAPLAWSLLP
In short: as §1

EOL-1 = experiment: Cell viability assay (CellTiter-Blue), EOL-1; assay type: cell-based; details: Homo sapiens, EOL1, read-out: EC50 EOL-1 μM (eosinophilic leukaemia), EOL-1 cells, read-out: EC50 EOL-1 μM (lymphoma);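 further: EOL-1 is an acute myeloid eosinophilic leukaemia line not a lymphoma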
In short: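 Cells exposed 48, 72 or 96 h (preferably 72 h) to nine 3-fold dilutions, top dose 10 μM or 30 μM. Viability read by resazurin-to-resorufin fluorescence after 4 h CellTiter-Blue; EC50 is concentration giving 50% reduction in viability/proliferative expansion.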

CDK1 = CDK1 (Homo sapiens, UniProt P06493); experiment: Biochemical results, IC50 CDK1
Sequence of CDK1 (P06493 whole entry, species assumed): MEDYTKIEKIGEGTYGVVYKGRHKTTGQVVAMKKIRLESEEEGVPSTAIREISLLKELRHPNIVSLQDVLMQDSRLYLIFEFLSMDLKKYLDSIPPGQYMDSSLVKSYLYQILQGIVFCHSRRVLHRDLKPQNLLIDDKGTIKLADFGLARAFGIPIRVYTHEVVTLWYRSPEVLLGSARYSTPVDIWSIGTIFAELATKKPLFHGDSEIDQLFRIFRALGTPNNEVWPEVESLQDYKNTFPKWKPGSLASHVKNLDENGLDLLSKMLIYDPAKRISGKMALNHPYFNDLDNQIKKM
Sequence of CDK1 (P14635 whole entry partner, species assumed): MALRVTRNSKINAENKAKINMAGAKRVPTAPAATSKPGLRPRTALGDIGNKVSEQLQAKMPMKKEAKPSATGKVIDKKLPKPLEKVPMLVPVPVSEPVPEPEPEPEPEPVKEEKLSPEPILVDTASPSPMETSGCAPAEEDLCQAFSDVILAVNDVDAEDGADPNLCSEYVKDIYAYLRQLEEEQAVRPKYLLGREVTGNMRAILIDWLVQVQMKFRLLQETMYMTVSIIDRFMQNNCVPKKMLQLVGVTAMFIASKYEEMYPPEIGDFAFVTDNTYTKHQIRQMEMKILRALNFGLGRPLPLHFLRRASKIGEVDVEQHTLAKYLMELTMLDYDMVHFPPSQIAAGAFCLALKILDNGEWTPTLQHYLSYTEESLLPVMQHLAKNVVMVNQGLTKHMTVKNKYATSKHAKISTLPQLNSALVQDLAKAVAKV

Pim-3 = target: T3, Pim-3 (Homo sapiens, UniProt Q86V86); experiment: TR-FRET assay of Pim kinase activity (phosphorylation of Bad Ser112), Pim-3; assay type: biochemical; details: ATP 40 μM, read-out: IC50 Pim3
T3 construct: full-length human recombinant His6-labelled Pim-1, Pim-2 or Pim-3 protein; His6; made in house
In short: as §1

PLK1 = PLK1 (Homo sapiens, UniProt P53350); experiment: Biochemical results, IC50 PLK1
Sequence of PLK1 (P53350 whole entry, species assumed): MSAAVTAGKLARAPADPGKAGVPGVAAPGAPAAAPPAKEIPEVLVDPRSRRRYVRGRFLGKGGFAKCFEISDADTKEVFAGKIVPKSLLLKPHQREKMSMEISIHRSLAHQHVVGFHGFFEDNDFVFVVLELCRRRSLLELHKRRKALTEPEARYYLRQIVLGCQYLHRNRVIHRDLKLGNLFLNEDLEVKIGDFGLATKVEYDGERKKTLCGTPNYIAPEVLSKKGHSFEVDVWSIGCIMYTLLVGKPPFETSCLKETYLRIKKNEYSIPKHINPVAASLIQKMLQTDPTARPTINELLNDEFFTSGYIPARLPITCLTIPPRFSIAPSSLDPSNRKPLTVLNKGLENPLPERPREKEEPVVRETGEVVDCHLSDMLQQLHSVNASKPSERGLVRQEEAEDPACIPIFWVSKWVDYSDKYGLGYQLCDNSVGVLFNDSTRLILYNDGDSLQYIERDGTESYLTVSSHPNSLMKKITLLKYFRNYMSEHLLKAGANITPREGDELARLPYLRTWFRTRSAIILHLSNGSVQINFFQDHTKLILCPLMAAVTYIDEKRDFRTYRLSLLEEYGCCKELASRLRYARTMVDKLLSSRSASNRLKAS

phosphoBAD (JEKO) = experiment: Level of phosphorylation of Bad by ELISA, JEKO cell line; assay type: cell-based; details: Homo sapiens, JEKO cells, 3 hours at 37° C.
Experimental: (§2) The activity of the molecules is evaluated on the JEKO or DND-41 cell line by measuring the level of phosphorylation of Bad and the total Bad content, via the ELISA technique.
(§3) The JEKO or DND-41 cells are resuspended at a concentration of 500 000 cells per ml. The cells are then diluted in RPMI-1640 medium containing 20% foetal calf serum. 225 μl of cells are placed in a plate. Serial dilutions of the molecules are then performed (8 points, three-fold dilution, range started at 10 mM). Each dilution point is then diluted to 1/100 in medium. Next, 25 μl of each of the concentrations are added to the cells and then incubated for 3 hours at 37° C.
(§4) 100 μl of the cells are transferred into a plate treated with poly-D-Lysine. The plate is then incubated for 5-10 minutes at 37° C. and then centrifuged for 5 minutes at 1500 rpm. A volume of 100 μl of 8% fixing solution (solution of formaldehyde in PBS buffer) is added to each of the wells. After covering with a self-adhesive film and a lid, the plate is incubated for 20 minutes at room temperature and then stored at 4° C. overnight.
(§5) Next, the liquid is removed and two successive washes are performed with washing buffer. 100 μl of quenching buffer are added, followed by incubating for 15 minutes at room temperature. After washing, 100 μl of […] at room temperature. After washing, 50 μl of primary antibody diluted to 1/250 for pBAD (Cell Signaling Cat#5284) and to 1/500 for Bad (MBL Cat#591) are added to each of the plates. Each plate is incubated for 2 hours at room temperature. After two washes, 50 μl of secondary antibody (diluted to 1/16) are added to the pBAD plate (tebu-bio ref; FE-021) and 50 μl of the HRP-conjugated IgG secondary antibody (Santa Cruz Cat #SC-2004; diluted to 1/1000) are added to the Bad plate. Incubation for 1 hour at room temperature is performed. Four washes with the washing solution are performed, followed by three washes with PBS. Finally, 100 μl of the developing solution are added, followed by incubation for 10 minutes. Finally, 100 μl of the quenching solution are added, before reading at 450 nm.

phosphoBAD (DND-41) = experiment: Level of phosphorylation of Bad by ELISA, DND-41 cell line; assay type: cell-based; details: Homo sapiens, DND41, DND-41 cells, 3 hours at 37° C.
Experimental: as §2, §3, §4, §5

MOLM-13 = experiment: Cell viability assay (CellTiter-Blue), MOLM-13; assay type: cell-based; details: Homo sapiens, read-out: EC50 MOLM-13 μM, MOLM-13 cells, read-out: EC50 MOLM-13 μM (myeloma)
Experimental: The representative compounds of the invention are also screened as regards their effects on cell proliferation and viability, using a variety of tumoral cell lines of human source, representative of different pathological indications. These cell lines include:
In order to measure the viability, the tumour cells are incubated in 96-well or 384-well format for 48, 72 or 96 hours, preferably 72 hours, with a compound of the invention at dilutions of a factor 3, with, in general, nine doses in total, the highest dose being equal to 10 μM or 30 μM. The cell viability is evaluated by adding CellTiter-Blue® (Promega, Madison, Wis., United States) for 4 hours and endpoint readings are taken using a SpectraMax Genmini EM plate reader (Molecular Devices, Sunnyvale, Calif., United States). The CellTiter-Blue® cell viability assay measures the ability of the cells in culture to reduce resazurin to resorufin, the intensity of the fluorescence signal being directly proportional to the number of live cells. The EC50 represents the concentration of compound that leads to a 50% reduction of the viability/proliferative expansion of the cells.

| IC50 (Pim-1) | EC50 (MV4-11) | IC50 (Pim-2) | IC50 (CDK1) | IC50 (Pim-3) | IC50 (PLK1) | IC50 (phosphoBAD (JEKO)) | IC50 (phosphoBAD (DND-41)) | EC50 (MOLM-13) | Compound | EC50 (EOL-1) |
| --- | --- | --- | --- | --- | --- | --- | --- | --- | --- | --- |
| < 0.1 µM | 0.1 to 1 µM | 0.1 to 1 µM | 1 to 5 µM | < 0.1 µM | 1 to 5 µM | 1 to 5 µM |  |  | CN1CCC(NC(=O)c2ccc(-c3c(F)cnc4[nH]c5cnc(-c6cccnc6)cc5c34)cc2)CC1 [Example 22, 4-[3-fluoro-6-(pyridin-3-yl)-9H-pyrrolo[2,3-b:5,4-c′]dipyridin-4-yl]-N-(1-methylpiperidin-4-yl)benzamide] | 0.1 to 1 µM |
| < 0.1 µM | 0.1 to 1 µM | 1 to 5 µM | 1 to 5 µM | < 0.1 µM | 1 to 5 µM | 0.1 to 1 µM | 1 to 5 µM |  | CN1CCN(CCNC(=O)c2ccc(-c3c(F)cnc4[nH]c5cnc(-c6cccnc6)cc5c34)cc2)CC1 [Example 24, 4-[3-fluoro-6-(pyridin-3-yl)-9H-pyrrolo[2,3-b:5,4-c′]dipyridin-4-yl]-N-[2-(4-methylpiperazin-1-yl)ethyl]benzamide] | 0.1 to 1 µM |
| < 0.1 µM | < 0.1 µM | < 0.1 µM | 0.1 to 1 µM | < 0.1 µM | 0.1 to 1 µM | 0.1 to 1 µM | 0.1 to 1 µM |  | CN(C)CCNC(=O)c1ccc(-c2ccnc3[nH]c4cnc(-c5cnn(C)c5)cc4c23)cc1 [Example 44] | < 0.1 µM |
| < 0.1 µM | 0.1 to 1 µM | 1 to 5 µM | 1 to 5 µM | < 0.1 µM | 1 to 5 µM | 1 to 5 µM | 0.1 to 1 µM |  | CN1CCC(CNC(=O)c2ccc(-c3c(F)cnc4[nH]c5cnc(-c6cccnc6)cc5c34)cc2)CC1 [Example 25, 4-[3-fluoro-6-(pyridin-3-yl)-9H-pyrrolo[2,3-b:5,4-c′]dipyridin-4-yl]-N-[(1-methylpiperidin-4-yl)methyl]benzamide] | 0.1 to 1 µM |
| < 0.1 µM | < 0.1 µM | < 0.1 µM | 0.1 to 1 µM | < 0.1 µM | 0.1 to 1 µM | 0.1 to 1 µM | 1 to 5 µM | 0.1 to 1 µM | CN(C)CCNC(=O)c1ccc(-c2c(F)cnc3[nH]c4cnc(-c5cccnc5)cc4c23)cc1 [Example 9, N-[2-(dimethylamino)ethyl]-4-[3-fluoro-6-(pyridin-3-yl)-9H-pyrrolo-[2,3-b:5,4-c′]dipyridin-4-yl]benzamide] | < 0.1 µM |
| < 0.1 µM |  | < 0.1 µM | 1 to 5 µM | < 0.1 µM | 0.1 to 1 µM | 0.1 to 1 µM | 0.1 to 1 µM |  | CN(C)CCN(C)C(=O)c1ccc(-c2c(F)cnc3[nH]c4cnc(-c5cccnc5)cc4c23)cc1 [Example 23, N-[2-(dimethylamino)ethyl]-4-[3-fluoro-6-(pyridin-3-yl)-9H-pyrrolo[2,3-b:5,4-c′]dipyridin-4-yl]-N-methylbenzamide] |  |
